Reference: patent publication US8227515B2, “Use of hydroxamic acid derivatives for the preparation of anti-tumour medicaments” (Italfarmaco S.p.A., priority 2003, dated 2012)
Where a name gives a salt, the structure may show the parent alone.

Experiments:
[1] = test system: A549 (pulmonary carcinoma); experiment: Tritiated thymidine incorporation, tumour cell growth inhibition; assay type: cell-based; conditions: Homo sapiens, 48 hours with compound, read-out: IC50 (50% cell growth inhibition)
Experimental: (§1) The anti-tumour effect of the compound of example 12 of EP 901465, 4-[6-(diethylaminomethyl)naphth-2-ylmethyloxycarbamoyl)] benzohydroxamic acid hydrochloride (ITF 2357), was tested in vitro by measuring the capacity of the compound to inhibit the growth of tumour cell lines of different histotype deriving from both solid tumours and haematological tumours. The cell lines used were: A549 (pulmonary carcinoma), MDA-MB435 (breast carcinoma) and KG-1 (myeloid leukaemia).
(§2) A549 and MDA-MB435 cells (respectively grown in E-MEM and D-MEM culture medium, supplemented with 10% of fetal calf serum) were seeded on 96 wells-flat bottom-plates (5000 cells/well) and allowed to adhere for 4 hours at 37° C. under 5% CO2 atmosphere. Thereafter ITF 2357 at various doses was added to each well (4 replicates). […]
(§3) […] At the end the cells were collected by a cell harvester and the radioactivity contained in each sample which is directly proportionated to DNA synthesis and therefore to cell proliferation was measured by a liquid scintillation beta counter.
(§4) The effect of different doses of ITF 2357 was measured as percent of inhibition of radioactivity incorporation compared with untreated control cells. […]

[2] = test system: MDA-MB435 (breast carcinoma); experiment: as above; assay type: cell-based; conditions: Homo sapiens, MDA-MB-435, 48 hours with compound, read-out: IC50 (50% cell growth inhibition)
Experimental: as §1, §2, §3, §4

[3] = test system: murine melanoma B16-BL6; experiment: Growth of subcutaneous murine melanoma B16-BL6 in vivo; set-up: species or system mouse C57BL/6; conditions: female C57BL/6 mice, oral, daily 6 days a week
Source text: The anti-tumour effect of ITF 2357 was studied measuring the capacity of the compound to reduce the growth of the murine melanoma B16-BL6. B16-BL6 tumour is a highly metastatic variant (Sciumbata T. et al. Invasion and Metastasis 1996; 16: 132-143) of the native tumour B16 and it grows subcutaneously in the syngenic mouse C57BL/6 (Gutman M et al. Cancer Biother. 1994; 9(2): 163-170). B16-BL6 tumour cells were inoculated subcutaneously in female C57BL/6 mice (10 animals/group, weight 20-22 grams) at the dose of 2×10^5 cells/mouse. ITF 2357 dissolved in water was administered orally, at the indicated doses, 10 minutes before the inoculum of the tumour cells and then daily for 6 days a week. The tumour growth was expressed as tumour weight, measuring twice a week, by means of a calibre, the two perpendicular diameters of the nodules. The weight was calculated according to the formula: (diameter 1×diameter 2)^2/2 as described in Giavazzi R. et al. Cancer Res. 1986; 46: 1928-1933.

[4] = test system: Pes41 (Melanoma); experiment: Sulforhodamine B viable cell assay, 72 hours; assay type: cell-based; conditions: Homo sapiens
Experimental: (§5) Cell lines derived from human solid tumours of different histotype and stabilised in vitro were used in the following experiment. In particular, three cell lines from head and neck tumours (KB, Ca127 and Hep2), two cell lines derived from colon carcinomas (HT-29 and LoVo) and four cell lines derived from melanomas (Colo38, Pes41, Pes43 and Anad) were studied.
(§6) The cells were grown according to conventional methods in flasks containing synthetic culture medium added with fetal serum, at 37° C. under 5% CO2 atmosphere, then seeded in 96 wells plates and allowed to adhere for some hours. ITF 2357 was added in triplicate at increasing doses to each well and the cells were incubated for further 72 hours. Viable cells were labelled by dyeing with sulforhodamine B and their amount was determined by spectrophotometric evaluation of the dye content in each well. The effect of ITF 2357 was calculated as percentage of inhibition, at each concentration, of the dye incorporation in wells containing ITF 2357 compared with control wells (cells without drug). IC50 values of ITF 2357 were calculated by Software Calcusyn (Biosoft) according to dose-response curves.

[5] = test system: KB (Head-neck); experiment: Sulforhodamine B viable cell assay, 72 hours; assay type: cell-based; conditions: Homo sapiens
Experimental: as §5, §6

[6] = test system: Hep-2 (Head-neck); experiment: Sulforhodamine B viable cell assay, 72 hours; assay type: cell-based; conditions: Homo sapiens
Experimental: as §5, §6

[7] = test system: HT-29 (Colon carcinoma); experiment: Sulforhodamine B viable cell assay, 72 hours; assay type: cell-based; conditions: Homo sapiens
Experimental: as §5, §6

[8] = test system: LoVo (Colon carcinoma); experiment: Sulforhodamine B viable cell assay, 72 hours; assay type: cell-based; conditions: Homo sapiens
Experimental: as §5, §6

[9] = test system: Cal27 (Head-neck); experiment: Sulforhodamine B viable cell assay, 72 hours; assay type: cell-based; conditions: Homo sapiens, CAL-27
Experimental: as §5, §6

[10] = test system: Pes43 (Melanoma); experiment: Sulforhodamine B viable cell assay, 72 hours; assay type: cell-based; conditions: Homo sapiens
Experimental: as §5, §6

[11] = test system: Anad (Melanoma); experiment: Sulforhodamine B viable cell assay, 72 hours; assay type: cell-based; conditions: Homo sapiens
Experimental: as §5, §6

[12] = test system: Colo38 (Melanoma); experiment: Sulforhodamine B viable cell assay, 72 hours; assay type: cell-based; conditions: Homo sapiens
Experimental: as §5, §6

[13] = test system: KG-1 (myeloid leukaemia); experiment: Tritiated thymidine incorporation, tumour cell growth inhibition; assay type: cell-based; conditions: 48 hours with compound, read-out: IC50 (50% cell growth inhibition)
Experimental: as §1
A liquid scintillation beta counter was used for measurement of the radioactivity contained in each sample, which is directly proportional to DNA synthesis and therefore to cell proliferation. KG-1 cells, grown in RPMI 1640 culture medium, supplemented with 5% fetal calf serum, were seeded in 96 wells-flat bottom-plates (250000 cells/well). ITF 2357 at various doses was immediately added and after 36 hours tritiated thymidine was added to each well (1 μCi/well) and left therein for the following 12 hours. At the end the cells were collected by a cell harvester and the radioactivity contained in each sample which is directly proportionated to DNA synthesis and therefore to cell proliferation was measured by a liquid scintillation beta counter.
as §4

SMILES: CCN(CC)Cc1ccc2cc(COC(=O)Nc3ccc(C(=O)NO)cc3)ccc2c1 [ITF 2357, 4-[6-(diethylaminomethyl)naphth-2-ylmethyloxycarbamoyl)] benzohydroxamic acid hydrochloride]
- IC50 [1]: 0.495 µM
- IC50 [2]: 0.073 µM
- effect on the tumour growth [3]: dose-dependent inhibitory effect
- reduction of the volume of the tumoural nodule ([3]; after 15 days of treatment): about 50%
- IC50 [4]: 1.6 µM
- IC50 [5]: 0.64 µM
- IC50 [6]: 1 µM
- IC50 [7]: 0.7 µM
- IC50 [8]: 2.5 µM
- IC50 [9]: 3.4 µM
- IC50 [10]: 1.4 µM
- IC50 [11]: 5.7 µM
- IC50 [12]: 2.38 µM
- IC50 [13]: 0.552 µM
